Test systems include Escherichia coli; Pseudomonas aeruginosa; Staphylococcus aureus; Bacillus subtilis; Candida albicans.
Assay in all cases: ≥ marks a high value that may be exact or a test limit, other limits are often not marked, values filed in µg/mL are converted to µM
The subject of experiment [1] is Enterococcus faecalis ATCC 29212.
Experiment [2] has as its system Escherichia coli ATCC 25922.
Experiment [3] has as its system Staphylococcus aureus ATCC 29213.
In experiment [4] the test system is Pseudomonas aeruginosa ATCC 27853.
In experiment [5] the test system is Staphylococcus epidermidis ATCC 12228.

Values after ≈ are worked out from the molar mass of the structure shown. Values joined by “and” are separate entries in the source; they are usually repeats but may differ in a detail not shown here. Equal values may be shown once.

For `CC[C@H](C)[C@H](NC(=O)CN)C(=O)NCC(=O)N[C@@H](CCCCN)C(=O)N[C@@H](Cc1ccccc1)C(=O)N[C@H](C(=O)N[C@@H](Cc1cnc[nH]1)C(=O)N[C@@H](CO)C(=O)N[C@@H](C)C(=O)N[C@@H](CCCCN)C(=O)N[C@@H](CCCN=C(N)N)C(=O)N[C@@H](Cc1ccccc1)C(=O)NCC(=O)N[C@@H](CCCN=C(N)N)C(=O)N[C@@H](C)C(=O)N[C@@H](Cc1c[nH]c2ccccc12)C(=O)N[C@H](C(=O)NCC(=O)N[C@@H](CCC(=O)O)C(=O)N[C@H](C(=O)N[C@@H](CCSC)C(=O)N[C@@H](CC(N)=O)C(=O)N[C@@H](CO)C(N)=O)[C@@H](C)CC)C(C)C)[C@@H](C)CC` [GIGKFIHSAKRFGRAWVGEIMNS], the MIC with Escherichia coli is 37.5 µM (≈ 96 µg/mL); against Pseudomonas aeruginosa it was 75 µM (≈ 192 µg/mL); with Staphylococcus aureus it was above 75 µM.
As to `CC[C@H](C)[C@H](NC(=O)[C@H](CCCCN)NC(=O)[C@H](CCCCN)NC(=O)[C@@H](NC(=O)[C@@H](NC(=O)[C@H](CCCCN)NC(=O)[C@H](Cc1ccccc1)NC(=O)[C@H](CC(C)C)NC(=O)CN)[C@@H](C)CC)[C@@H](C)CC)C(=O)N[C@@H](Cc1c[nH]c2ccccc12)C(=O)N[C@@H](CCCCN)C(=O)N[C@@H](CO)C(=O)N[C@@H](Cc1ccccc1)C(N)=O` [GLFKIIKKIWKSF], the minimum inhibitory concentration (MIC) in experiment [1] is 15.5 µM and 31.1 µM; in experiment [2] it was 3.89 µM and 7.77 µM; in [3], 1.94 µM and 3.89 µM.
In the case of `CC[C@H](C)[C@H](NC(=O)[C@H](CC(C)C)NC(=O)[C@H](C)NC(=O)[C@@H]1CCCN1C(=O)[C@H](CC(C)C)NC(=O)CN)C(=O)N[C@@H](CO)C(=O)N[C@@H](CO)C(=O)N[C@H](C(=O)N[C@@H](CCCCN)C(=O)N[C@@H](CCCN=C(N)N)C(=O)N[C@@H](CCCCN)C(=O)N[C@@H](CCCN=C(N)N)C(=O)N[C@@H](CCC(N)=O)C(=O)N[C@@H](CCC(N)=O)C(N)=O)[C@@H](C)CC` [GLPALISSIKRKRQQ], the results for the minimum inhibitory concentration (MIC) against Bacillus subtilis, with Escherichia coli and with Staphylococcus aureus were at least 45.1 µM, above 180 µM and 22.5 µM (≈ 38.2 µg/mL), respectively.
Consider `CC[C@H](C)[C@H](NC(=O)[C@H](CC(C)C)NC(=O)[C@H](C)NC(=O)[C@@H]1CCCN1C(=O)[C@H](CC(C)C)NC(=O)CN)C(=O)N[C@@H](CO)C(=O)N[C@@H](Cc1c[nH]c2ccccc12)C(=O)N[C@H](C(=O)N[C@@H](CCCCN)C(=O)N[C@@H](CCCN=C(N)N)C(=O)N[C@@H](CCCCN)C(=O)N[C@@H](CCCN=C(N)N)C(=O)NCC(=O)NCC(N)=O)[C@@H](C)CC` [GLPALISWIKRKRGG], for which the MIC amounted to 1.48 µM (≈ 2.45 µg/mL) against Bacillus subtilis, 47.4 µM (≈ 78.3 µg/mL) in the experiment on Escherichia coli and 1.57 µM (≈ 2.6 µg/mL) against Staphylococcus aureus.
`CC[C@H](C)[C@H](NC(=O)[C@H](Cc1c[nH]c2ccccc12)NC(=O)CNC(=O)[C@H](CCCCN)NC(=O)CNC(=O)[C@H](Cc1ccccc1)NC(=O)[C@H](Cc1cnc[nH]1)NC(=O)[C@H](C)NC(=O)[C@H](C)NC(=O)[C@H](C)NC(=O)[C@H](CCCCN)NC(=O)CNC(=O)[C@H](Cc1ccccc1)NC(=O)[C@H](CCCCN)NC(=O)[C@H](C)NC(=O)[C@@H](NC(=O)CN)C(C)C)C(=O)N[C@@H](CCCCN)C(=O)N[C@@H](CCC(=O)O)C(=O)N[C@@H](CCSC)C(=O)N[C@@H](CC(C)C)C(=O)N[C@@H](CC(N)=O)C(=O)N[C@@H](CO)C(N)=O` [GVAKFGKAAAHFGKGWIKEMLNS]: the MIC in experiment [2], in [4] and in experiment [3] was above 76 µM each time.
In the case of `CC[C@H](C)[C@H](N)C(=O)N[C@@H](CC(C)C)C(=O)NCC(=O)N[C@@H](CCCCN)C(=O)N[C@@H](CC(C)C)C(=O)N[C@@H](Cc1c[nH]c2ccccc12)C(=O)N[C@@H](CCC(=O)O)C(=O)NCC(=O)N[C@H](C(=O)N[C@@H](CCCCN)C(=O)N[C@@H](CO)C(=O)N[C@H](C(N)=O)[C@@H](C)CC)C(C)C` [ILGKLWEGVKSI], the minimal inhibitory concentration (MIC) (in experiment [4]; against Pseudomonas aeruginosa) was above 25 µM in each case.
For `CC[C@H](C)[C@H](NC(=O)[C@H](C)NC(=O)CNC(=O)[C@@H](NC(=O)[C@H](CCCCN)NC(=O)[C@H](CCCCN)NC(=O)[C@@H](NC(=O)[C@H](C)NC(=O)CNC(=O)[C@H](Cc1c[nH]c2ccccc12)NC(=O)[C@H](CCCCN)NC(=O)[C@H](CCCCN)NC(=O)[C@@H](NC(=O)[C@H](C)NC(=O)CNC(=O)[C@@H](NC(=O)[C@@H](N)CCCCN)[C@@H](C)CC)[C@@H](C)CC)[C@@H](C)CC)[C@@H](C)CC)C(=O)N[C@@H](CCCCN)C(N)=O` [KIGAIKKWGAIKKIGAIK], the MIC with Escherichia coli, against Pseudomonas aeruginosa and against Staphylococcus aureus was above 133 µM throughout.
Take `CC[C@H](C)[C@H](NC(=O)[C@H](C)NC(=O)[C@H](CCCCN)NC(=O)CNC(=O)[C@@H](NC(=O)[C@H](CCCCN)NC(=O)[C@@H](NC(=O)[C@H](C)NC(=O)[C@H](CCCCN)NC(=O)CNC(=O)[C@H](Cc1c[nH]c2ccccc12)NC(=O)[C@H](CCCCN)NC(=O)[C@@H](NC(=O)[C@H](C)NC(=O)[C@H](CCCCN)NC(=O)CNC(=O)[C@@H](NC(=O)[C@@H](N)CCCCN)[C@@H](C)CC)[C@@H](C)CC)[C@@H](C)CC)[C@@H](C)CC)C(N)=O` [KIGKAIKWGKAIKIGKAI]: the MIC with Escherichia coli was 16.6 µM (≈ 32 µg/mL); in the experiment on Pseudomonas aeruginosa, 33.3 µM (≈ 64 µg/mL); with Staphylococcus aureus it was above 133 µM.
With `CC[C@H](C)[C@H](NC(=O)[C@H](CO)NC(=O)[C@H](C)NC(=O)[C@@H](NC(=O)[C@H](CCCCN)NC(=O)[C@H](CCCCN)NC(=O)[C@H](Cc1c[nH]c2ccccc12)NC(=O)[C@H](CC(N)=O)NC(=O)[C@@H](N)CCCCN)[C@@H](C)CC)C(=O)NCC(=O)N[C@@H](CCCCN)C(=O)N[C@@H](CCC(=O)O)C(=O)N[C@H](C(=O)N[C@@H](CC(C)C)C(=O)N[C@@H](CCCCN)C(=O)N[C@@H](C)C(=O)N[C@@H](CC(C)C)C(N)=O)C(C)C` [KNWKKIASIGKEVLKAL], the minimum inhibitory concentration (MIC) with Bacillus subtilis is at least 60 µM; with Escherichia coli, 12.5 µM (≈ 24.1 µg/mL).
With `CC(=O)N[C@@H](CCCCN)C(=O)N[C@@H](Cc1ccc(O)cc1)C(=O)N[C@H](C(=O)NCC(=O)N[C@@H](CCCCN)C(=O)N[C@@H](CS)C(=O)N[C@H](C(=O)N[C@@H](CCCCN)C(=O)N[C@@H](CO)C(=O)N[C@@H](CCCCN)C(=O)N[C@@H](CC(N)=O)C(=O)N[C@@H](CCC(=O)O)C(=O)N[C@@H](CS)C(=O)N[C@@H](CCCCN)C(N)=O)[C@@H](C)O)[C@@H](C)O` [KYTGKCTKSKNECK], in the experiment with Candida albicans, the MIC was 10 µM (≈ 16.6 µg/mL).
Consider `CC(=O)N[C@@H](CC(C)C)C(=O)N[C@@H](CCCCN)C(=O)N[C@@H](CCCCN)C(=O)N[C@@H](CC(C)C)C(=O)N[C@@H](CC(C)C)C(=O)N[C@@H](CCCCN)C(=O)N[C@@H](CC(C)C)C(=O)N[C@@H](CC(C)C)C(=O)N[C@@H](CCCCN)C(=O)N[C@@H](CCCCN)C(=O)N[C@@H](CC(C)C)C(=O)N[C@@H](CC(C)C)C(=O)N[C@@H](CCCCN)C(=O)N[C@@H](CC(C)C)C(=O)N[C@@H](C)C(=O)NCC(N)=O` [LKKLLKLLKKLLKLAG], for which the MIC in experiment [2] and in experiment [3] was 20 µM (≈ 37.2 µg/mL) each time.
For `CC(=O)N[C@@H](CC(C)C)C(=O)N[C@@H](CCCCN)C(=O)N[C@@H](CCCCN)C(=O)N[C@@H](CC(C)C)C(=O)N[C@@H](CC(C)C)C(=O)N[C@@H](CCCCN)C(=O)N1CCC[C@H]1C(=O)N[C@@H](CC(C)C)C(=O)N[C@@H](CCCCN)C(=O)N[C@@H](CCCCN)C(=O)N[C@@H](CC(C)C)C(=O)N[C@@H](CC(C)C)C(=O)N[C@@H](CCCCN)C(=O)N[C@@H](CC(C)C)C(N)=O` [LKKLLKPLKKLLKL], the MIC in [2] and in [3] was 20 µM (≈ 34.3 µg/mL) each time.
As to `CC(=O)N[C@@H](CC(C)C)C(=O)N[C@@H](CCCCN)C(=O)N[C@@H](CCCCN)C(=O)N[C@@H](CC(C)C)C(=O)N[C@@H](CC(C)C)C(=O)N1CCC[C@H]1C(=O)N[C@@H](CC(C)C)C(=O)N[C@@H](CC(C)C)C(=O)N[C@@H](CCCCN)C(=O)N[C@@H](CCCCN)C(=O)N[C@@H](CC(C)C)C(=O)N[C@@H](CC(C)C)C(=O)N[C@@H](CCCCN)C(=O)N[C@@H](CC(C)C)C(N)=O` [LKKLLPLLKKLLKL], the minimal inhibitory concentration (MIC) in experiment [2] amounted to 10 µM (≈ 17 µg/mL); in [3] it was 2.5 µM (≈ 4.26 µg/mL).
The corresponding values for `CC(C)[C@H](NC(=O)[C@H](Cc1c[nH]c2ccccc12)NC(=O)[C@H](CCCN=C(N)N)NC(=O)[C@@H](N)CCCN=C(N)N)C(=O)N[C@@H](C)C(=O)N[C@@H](Cc1c[nH]c2ccccc12)C(=O)N[C@@H](CCCN=C(N)N)C(=O)N[C@@H](CC(N)=O)C(=O)N[C@@H](CCCN=C(N)N)C(=O)O` [RRWVAWRNR] are 96 µM (≈ 125 µg/mL) and 96 µM (≈ 125 µg/mL).
As to `CC[C@H](C)[C@H](NC(=O)CNC(=O)[C@H](CC(C)C)NC(=O)[C@@H](NC(=O)[C@H](Cc1ccc(O)cc1)NC(=O)[C@@H](NC(=O)[C@H](CO)NC(=O)[C@@H](NC(=O)[C@@H]1CCCN1C(=O)[C@@H](NC(=O)[C@@H](N)CO)C(C)C)[C@@H](C)O)C(C)C)[C@@H](C)O)C(=O)N[C@@H](CCCCN)C(=O)N[C@H](C(=O)N[C@@H](CC(C)C)C(=O)N[C@@H](Cc1c[nH]c2ccccc12)C(=O)N[C@@H](CO)C(=O)N[C@@H](C)C(=O)N[C@@H](Cc1ccc(O)cc1)C(=O)N[C@@H](CCCCN)C(=O)N[C@@H](Cc1cnc[nH]1)C(=O)N[C@@H](CCCN=C(N)N)C(=O)N[C@@H](CCCCN)C(=O)N[C@H](C(=O)N[C@H](C(=O)N[C@@H](CCC(=O)O)C(=O)N[C@@H](CCCCN)C(=O)N[C@@H](CO)C(=O)N[C@@H](Cc1ccccc1)C(=O)N[C@@H](CC(N)=O)C(=O)N[C@@H](CCCCN)C(=O)NCC(=O)N[C@@H](Cc1ccccc1)C(=O)N[C@@H](Cc1ccc(O)cc1)C(=O)N[C@@H](Cc1cnc[nH]1)C(=O)O)[C@@H](C)CC)[C@@H](C)O)[C@@H](C)CC` [SVPTSVYTLGIKILWSAYKHRKTIEKSFNKGFYH], the MIC in experiment [5] amounted to 50 µM (≈ 200 µg/mL).

For orientation: MIC means the least concentration at which growth counts as inhibited. A high value points to a need for much substance.

The values above are taken from DBAASP.
